Data published in US6071884A, “Pharmaceutical compositions and therapeutic methods” (Kirin Beer Kabushiki Kaisha, priority 1992, dated 2000).

Assays:
[1] = test system: mononuclear cell fraction of human umbilical cord blood; test: Proliferation-stimulating effect on mononuclear cell fraction of human umbilical cord blood (3H-TdR uptake); format: cell-based; conditions: 96 h, percentage of control, 4 days; for activity at 0.1 µg/mL: 10^-1 μg/ml; for activity at 0.01 µg/mL: 10^-2 μg/ml; for activity at 0.001 µg/mL: 10^-3 μg/ml
From the text: Pharmacological Test 3: Proliferation-Stimulating Effect on Mononuclear Cell Fraction of Human Umbilical Cord Blood
It is extremely difficult to obtain human marrow cells. In addition, human umbilical cord blood contains stem cells (Nakahata, T. & Ogwa, M., J. Clin. Inveet. 70, 1324-1328 (1982)), so that it can be a good source of hematopoietic stem/progenitor cell supply (H. E. Broxneyer et al, Proc. Natl. Acad. Sci. USA, 86, 3828-3832 (1989)). For these reasons, the effect on human was examined by using, instead of human marrow cells, human umbilical cord blood.
To human umbilical cord blood was added an equal amount of RPMI 1640. This was placed on a Lymphoprep and centrifugal. The mononuclear cell fraction (MNF) thus obtained was used in the following experiment.
The concentration of the MNF was adjusted to 1×10^6 cells/ml by using an RPMI 1640 added with 10% auto-blood plasma as a culture medium. 10 μl/well of a sample with a predetermined concentration and 100 μl/well of the above-prepared MNF were placed on a round-bottomed 96 well plate and incubated under the conditions of 37° C. and 5% CO2 for 4 days. Thereafter, 0.5 μCi/well of ^3 H-TdR was added. After 8 hour incubation, the cells were harvested, and the amount of the 3H-TdR taken in the nuclei was measured by a liquid scintillation counter.

[2] = test system: marrow cells (mononuclear cell fraction); test: Proliferation-stimulating effect on marrow cell of mouse (3H-TdR uptake); format: cell-based, mouse (BALB/c); conditions: percentage of control, 72 h; for activity at 0.1 µg/mL: 10^-1 μg/ml; for activity at 0.01 µg/mL: 10^-2 μg/ml; for activity at 0.001 µg/mL: 10^-3 μg/ml
Method in brief: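 Mononuclear marrow cell fraction from 7-week-old female BALB/c mouse thigh bone, 1.5×10^6 cells/ml in 10% FCS RPMI 1640, cultured with test sample 72 h at 37° C. ³H-thymidine (0.5 μCi/well) then added for 8 h; nuclear ³H-TdR uptake counted by liquid scintillation.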

[3] = Life-span-increasing effect on irradiation of a lethal dose of radiation; format: in vivo, mouse (BDF1); conditions: 10 mice/group, 9 Gy X-ray, 0.1 mg/kg i.v. days 0, 4, 8
Experimental: Pharmacological Test 4: Life-Span-Increasing Effect on Irradiation of a Lethal Dose of Radiation
An experiment was carried out by using 6 week old female BDF1 mice purchased from Japan SLC Co., Ltd., with 10 mice made one group.
The entire bodies of the entire body of the mice were irradiated with 9 Gy of X-rays by using a Hitachi X-ray irradiator (MBR-1520R), and the day on which the X-ray was irradiated was referred to as "day 0".

blood platelets [4] = test: Thrombocytopenia-inhibiting effect in X-ray-irradiated mice; format: in vivo, mouse (BDF1); conditions: 10 days after 5 Gy X-ray; 0.1 mg/kg i.v. within 2 h; mean ± SD; vehicle per series 10.3, 6.8, 6.7; non-treatment 68.2, 96.9, 73.0
Method in brief: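 Female BDF1 mice, 6 weeks old, six per group, given 5 Gy whole-body X-ray, then 0.1 mg/kg i.v. via tail vein within 2 hours. Platelets counted by hemocytometer in fundus-vein blood 10 days later; untreated and vehicle groups run alongside.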

blood platelets [5] = test: Blood-platelet-increasing effect upon normal mouse; format: in vivo, mouse (BDF1); conditions: normal mice; 6 days after 0.1 mg/kg i.v.; mean ± SD; vehicle per series 58.2, 63.0, 71.1
Method in brief: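 Female BDF1 mice, 6 weeks old (5 per group), received test sample at 0.1 mg/kg into the caudal vein. Six days later, fundus-vein blood was taken and platelets counted on a multi-channel hemocytometer, compared against vehicle-treated animals.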

[6] = day 10, controls per series 10, 10, 10, 10, 10, 8
[7] = day 15, controls per series 8, 9, 5, 5, 7, 1
[8] = day 20, controls per series 4, 5, 1, 2, 3, 0
[9] = day 25, controls per series 3, 3, 0, 0, 2, 0
[10] = day 30, controls per series 1, 1, 0, 0, 0, 0

Compound	activity at 0.1 µg/mL [1] [%]	activity at 0.01 µg/mL [1] [%]	activity at 0.001 µg/mL [1] [%]	activity at 0.1 µg/mL [2] [%]	activity at 0.01 µg/mL [2] [%]	activity at 0.001 µg/mL [2] [%]	Number of Surviving Mice [3, 6] [mice]	Number of Surviving Mice [3, 7] [mice]	Number of Surviving Mice [3, 8] [mice]	Number of Surviving Mice [3, 9] [mice]	Number of Surviving Mice [3, 10] [mice]	Number of Surviving Mice ([3]; day 35, all controls 0) [mice]	Number of Surviving Mice ([3]; day 40, all controls 0) [mice]	Number of Blood Platelets (blood platelets [4])	Number of Blood Platelets (blood platelets [5])	activity at 1 µg/mL ([2]; 10^0 μg/ml) [%]
CCCCCCCCCCCCCCCCCCCCCCCC[C@@H](O)C(=O)N[C@@H](CO[C@H]1O[C@H](CO)[C@H](O)[C@H](O)[C@H]1O)[C@H](O)[C@H](O)CCCCCCCCCCCCCCCC [Compound 27, (2S,3S,4R)-1-(α-D-galactopyranosyloxy)-2-[(R)-2-hydroxyhexacosanoylamino]-3,4-icosanediol]	450	486	344	220	165	156	10	10	9	9	9	9	9	16.0 ± 4.1 × 10^4 /μl	101.3 ± 7.1 × 10^4 /μl	–
CCCCCCCCCCCCCCCCCCCCCCCC(=O)N[C@@H](CO[C@H]1O[C@H](CO)[C@H](O)[C@H](O)[C@H]1O)[C@H](O)[C@H](O)CCCCCCCCCCCCCC [Compound 16, (2S,3S,4R)-1-(α-D-galactopyranosyloxy)-2-tetracosanoylamino-3,4-octadecanediol]	311	204	216	495	152	115	10	6	6	6	6	6	6	21.1 ± 6.2 × 10^4 /μl	114.7 ± 13.0 × 10^4 /μl	–
CCCCCCCCCCCCCCCCCCCCCC[C@@H](O)C(=O)N[C@@H](CO[C@H]1O[C@H](CO)[C@H](O)[C@H](O)[C@H]1O)[C@H](O)[C@H](O)CCCCCCCCCCCCC [Compound 22, (2S,3S,4R)-1-(α-D-galactopyranosyloxy)-2-[(R)-2-hydroxytetracosanoylamino]-3,4-heptadecanediol]	362	357	204	226	116	104	10	10	10	9	8	8	8	25.4 ± 5.1 × 10^4 /μl	104.1 ± 7.7 × 10^4 /μl	613
CCCCCCCCCCCCCCCCCCCCCCCC(=O)N[C@@H](CO[C@H]1O[C@H](CO)[C@H](O)[C@H](O)[C@H]1O)[C@H](O)[C@H](O)CCCCCCCCCCCCC [Compound 17, (2S,3S,4R)-1-(α-D-galactopyranosyloxy)-2-tetracosanoylamino-3,4-heptadecanediol]	318	233	98	462	149	159	10	10	9	9	9	9	9	18.5 ± 4.4 × 10^4 /μl	92.1 ± 11.3 × 10^4 /μl	–
